Measured values from paper PMC6743422, “Preclinical disposition of MGS0274 besylate, a prodrug of a potent group II metabotropic glutamate receptor agonist MGS0008 for the treatment of schizophrenia” (Pharmacology Research & Perspectives, 2019).
Several values for one entry are separate records, joined by “and”; a condition that tells them apart may be missing. Equal values may be shown once. Entries after “also recorded” stand apart in the source; their conditions may differ. Read-outs that look alike come from different tables or passages of the source.

Experiments:
[1] = tested on: phencyclidine-induced locomotor hyperactivity; details: rat, oral 3 mg/kg; cited from earlier work
[2] = Pharmacokinetics of MGS0008 in monkeys (intravenous or oral); assay type: in vivo, cynomolgus monkey; details: fed male monkeys; for AUC(0-t): read-out: AUC0–24h
Experimental: (§1) The pharmacokinetic profiles of MGS0008 and MGS0274 were investigated in fasted male Wistar rats (n = 3) and fed male cynomolgus monkeys (n = 4). Monkeys had been given 60 g of a primate diet (PS‐A; Oriental Yeast, Tokyo, Japan) one hour before administration. For intravenous administration, MGS0008 was dissolved in saline (pH7.4) and administered to rats (3 mg/kg) and monkeys (1 mg/kg). Blood samples were collected from the tail vein (rats) or the forelimb cephalic vein (monkeys) into tubes containing EDTA‐2K at 5, 15, and 30 minutes and at 1, 2, 4, 8, and 24 hours postdose for both species, and an additional sample was collected at 12 hours postdose for monkeys. Urine samples were collected until 48 hours at 24‐hour intervals (rats) or at 0‐ to 8‐hour, 8‐ to 24‐hour, and 24‐ to 48‐hour intervals (monkeys). The plasma or urine samples was mixed with acetonitrile/methanol (9:1, v/v) containing [^13C2 ^15N]MGS0008 and centrifuged. Aliquots of the supernatant were subjected to bioanalysis using LC‐MS/MS (see Table S1‐E). For oral administration, MGS0008 was dissolved in distilled water (rats) or 0.5% w/v methylcellulose 400 (monkeys) and administered to rats (3 mg/kg) and monkeys (1 mg/kg). MGS0274 besylate was suspended in 0.5% w/v methylcellulose 400 containing 0.1% v/v Tween 80 and administered to monkeys at a dose of 2.89 mg/kg (1‐mg equivalent of MGS0008/kg). Blood samples were collected from the tail vein (rats) or the forelimb cephalic vein (monkeys) into tubes containing EDTA‐2K at 30 minutes, 1, 1.5, 2, 4, 6, 8, and 24 hours postdose for rats, and 30 minutes, 1, 2, 4, 8, 12, and 24 hours postdose for monkeys. The plasma samples were mixed with acetonitrile/methanol (9:1, v/v) containing internal standards ([^13C2 ^15N]MGS0008 and MGS0039) and centrifuged. Aliquots of the supernatant were subjected to bioanalysis using LC‐MS/MS (see Tables S1‐E and F). In the study examining the tissue distribution of MGS0008 in rats (3 mg/kg), blood samples were collected from the posterior vena cava into tubes containing EDTA‐2K under isoflurane anesthesia at 1.5, 4, 6, or 24 hours postdose. Then, the animals were euthanized by exsanguination from the abdominal aorta; cerebrospinal fluid (CSF) samples were drawn from the spinal cord space in each animal. The plasma or CSF was mixed with acetonitrile/methanol (9:1, v/v) containing [^13C2 ^15N]MGS0008 and centrifuged. Aliquots of the supernatant were subjected to bioanalysis using LC‐MS/MS (see Table S1‐E).
(§2) The plasma concentration‐time profiles of MGS0008 and MGS0274 were analyzed using a non‐compartmental analysis method with pharmacokinetic analysis software Phoenix® WinNonlin® 6.2 or later (Certara, Princeton, NJ).

[3] = Plasma and CSF distribution of MGS0008 in rats; assay type: in vivo; details: Wistar, rat, fasted male rats, MGS0008 oral 3 mg/kg
Experimental: as §1, §2

[4] = Pharmacokinetics of MGS0008 in rats (intravenous or oral); assay type: in vivo, rat; details: fasted male rats
Experimental: as §1, §2

CYP3A = CYP3A (Homo sapiens, UniProt P08684); assay: CYP inhibition in human liver microsomes, CYP3A; assay type: in vitro ADME; details: probe testosterone (6β-hydroxytestosterone formation), human liver microsomes 0.1 mg/mL, metabolite 6β-Hydroxytestosterone
Experimental: The inhibition potential of MGS0008 (0.3‐100 µmol/L) and MGS0274 besylate (0.03‐10 µmol/L) on the activity of human cytochrome P450 (CYP) isoforms (CYP1A2, 2B6, 2C8, 2C9, 2C19, 2D6, and 3A) was investigated using probe substrates for each CYP isoform and human liver microsomes, of which the final protein concentration was set at 0.1 mg/mL (see Table S2). The assay was started by spiking the reaction mixture, which had been pre‐incubated at 37°C for 5 minutes, with NADP^+. After incubation for 5 to 10 minutes, the reaction was terminated by adding acetonitrile containing an internal standard for each probe substrate, and the resultant mixture was centrifuged. Aliquots of the supernatant were subjected to bioanalysis using LC‐MS/MS (see Table S1‐D).
The final protein concentration in the reaction mixture was set at 0.1 mg/mL. The values in parentheses represent the final concentrations of compounds added in each reaction mixture. […]

[5] = tested on: human cryopreserved hepatocytes; assay: In vitro metabolite profiling in human cryopreserved hepatocytes; assay type: in vitro ADME; details: human hepatocytes
Experimental: Rat, monkey, or human cryopreserved hepatocytes in Leivovitz L‐15 medium at 0.5 million cells/mL were incubated at 37°C for 1 hour with [^14C]MGS0274 besylate at 10 μmol/L. The reaction was terminated by adding 10% w/v trichloroacetic acid solution, and the resultant mixture was centrifuged. Aliquots of the supernatant were subjected to bioanalysis using high‐performance liquid chromatography equipped with radiochemical flow detection (RI‐HPLC) (see Table S1‐B). Aliquots of the supernatant from unlabeled incubation samples and authentic standards were also injected into a liquid chromatography‐mass spectrometry (LC‐MS) system under the same chromatographic conditions to compare their chromatographic retention times and mass spectral data (see Table S1‐B).

mGlu2/3 receptors = details: cited from earlier work
[6] = cynomolgus monkey, MGS0008 intravenous 1 mg/kg, plasma
[7] = cynomolgus monkey, MGS0008 oral 1 mg/kg, plasma
[8] = CSF, read-out: CSF concentration
[9] = plasma, read-out: Plasma concentration
[10] = Wistar, rat, MGS0008 intravenous 3 mg/kg, plasma
[11] = Wistar, rat, MGS0008 oral 3 mg/kg, plasma

Chain of CYP3A (P08684 2-503): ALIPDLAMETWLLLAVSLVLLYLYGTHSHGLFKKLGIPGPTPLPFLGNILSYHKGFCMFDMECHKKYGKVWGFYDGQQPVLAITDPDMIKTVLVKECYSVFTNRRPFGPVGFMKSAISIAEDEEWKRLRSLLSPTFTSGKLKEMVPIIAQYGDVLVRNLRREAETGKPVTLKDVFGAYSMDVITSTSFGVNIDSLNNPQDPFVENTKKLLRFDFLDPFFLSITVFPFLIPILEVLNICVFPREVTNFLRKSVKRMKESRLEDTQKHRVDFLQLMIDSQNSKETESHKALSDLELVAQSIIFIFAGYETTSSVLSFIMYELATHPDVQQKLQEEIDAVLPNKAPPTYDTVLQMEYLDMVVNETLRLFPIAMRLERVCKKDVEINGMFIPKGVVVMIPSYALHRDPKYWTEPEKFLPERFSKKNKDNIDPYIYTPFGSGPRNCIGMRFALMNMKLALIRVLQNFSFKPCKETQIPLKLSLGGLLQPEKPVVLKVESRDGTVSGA

SMILES: N[C@]1(C(=O)O)[C@H]2[C@@H](C[C@@H]1F)[C@@H]2C(=O)O [MGS0008, (1S,2S,3S,5R,6S)‐2‐amino‐3‐fluorobicyclo[3.1.0]hexane‐2,6‐dicarboxylic acid]
- phencyclidine-induced locomotor hyperactivity [1]: inhibited; also recorded: significantly decreased
- concentration at 24 h ([2]; cynomolgus monkey, plasma, MGS0008 intravenous 1 mg/kg, below lower limit of quantification): < 3 ng/mL
- clearance ([2]; cynomolgus monkey, plasma, MGS0008 intravenous 1 mg/kg, mean ± SD (n = 4), read-out: CLtotal (converted)): 2.15 mL/min/kg
- Vd ([2]; cynomolgus monkey, plasma, MGS0008 intravenous 1 mg/kg, mean ± SD (n = 4), read-out: Vdss): 0.181 ± 0.0214 L/kg
- bioavailability ([2]; cynomolgus monkey, plasma, MGS0008 oral 1 mg/kg, AUC0-24h oral / AUC0-24h intravenous × 100): 3.8 ± 2.8%
- CL renal ([2]; cynomolgus monkey, urine and plasma, MGS0008 intravenous 1 mg/kg): 2.07 mL/min/kg
- half-life [2, 6]: 1.48 ± 0.0435 h
- AUC(0-t) [2, 6]: 7830 ± 776 ng·h/mL
- Cmax [2, 7]: 20.5 ± 11.5 ng/mL
- Tmax [2, 7]: 9 ± 10 h
- AUC(0-t) [2, 7]: 281 ± 177 ng·h/mL
- vomiting ([2]; MGS0008 intravenous 1 mg/kg): three of the four monkeys experienced transient vomiting
- Urinary excretion (unchanged form) ([2]; MGS0008 intravenous 1 mg/kg, within 48 hours, % of administered dose, 1 mg/kg): 96.4% and 96.4 ± 7.51%
- Kp ([3]; CSF/plasma, read-out: CSF/plasma AUC ratio): 0.028
- concentration at 1.5 h [3, 8]: 19.1 ± 5.08 ng/mL
- concentration at 4 h [3, 8]: 7.88 ± 1.04 ng/mL
- concentration at 6 h [3, 8]: 4.84 ± 0.384 ng/mL
- concentration at 24 h [3, 8]: 2.04 ± 0.0265 ng/mL
- AUC(0-t) ([3]; CSF, read-out: AUC0–24h in CSF): 123 ± 7.37 ng·h/mL
- concentration at 1.5 h [3, 9]: 1980 ± 431 ng/mL
- concentration at 4 h [3, 9]: 138 ± 64.2 ng/mL
- concentration at 6 h [3, 9]: 6.23 ± 1.83 ng/mL
- concentration at 24 h ([3]; plasma, below lower limit of quantification, read-out: Plasma concentration): < 3 ng/mL
- AUC(0-t) ([3]; plasma, read-out: AUC0–24h in plasma): 4330 ± 719 ng·h/mL
- concentration at 24 h ([4]; Wistar, rat, plasma, other: intravenous or oral, MGS0008 intravenous or oral 3 mg/kg, below lower limit of quantification): < 3 ng/mL
- clearance ([4]; Wistar, rat, plasma, MGS0008 intravenous 3 mg/kg, mean ± SD (n = 3), read-out: CLtotal (converted)): 9.13 mL/min/kg
- Vd ([4]; Wistar, rat, plasma, MGS0008 intravenous 3 mg/kg, mean ± SD (n = 3), read-out: Vdss): 0.545 ± 0.0939 L/kg
- bioavailability ([4]; Wistar, rat, plasma, MGS0008 oral 3 mg/kg, AUC0-∞ oral / AUC0-∞ intravenous × 100): 78.1%
- CL renal ([4]; Wistar, rat, urine and plasma, MGS0008 intravenous 3 mg/kg): 8.52 mL/min/kg
- AUC(0-inf) [4, 10]: 5480 ± 293 ng·h/mL
- half-life [4, 10]: 1.54 ± 0.06 h
- AUC(0-inf) [4, 11]: 4280 ± 478 ng·h/mL
- Cmax [4, 11]: 1990 ± 64.3 ng/mL
- Tmax [4, 11]: 1.17 ± 0.289 h
- half-life [4, 11]: 0.968 ± 0.031 h
- Urinary excretion (unchanged form) ([4]; MGS0008 intravenous 3 mg/kg, within 48 hours, % of administered dose, 3 mg/kg): 93.2% and 93.2 ± 4.69%
- IC50 (CYP3A): > 100 µM
- further metabolism of MGS0008 in hepatocytes [5]: not metabolized
- agonist activity for mGlu2/3 receptors (mGlu2/3 receptors): potent agonist activity
